Laboratory results as given in patent publication US10639287B2, “Compounds for the treatment of mitochondrial diseases” (UNIVERSITE PARIS-SUD, priority 2014, dated 2020).

Key:
[1] = tested on: homozygous TB2143 nematodes (polg-1(Δ/Δ)); assay: Number of laid and hatched eggs of homozygous nematodes; format: in vivo, Caenorhabditis elegans; details: 50 μM vs DMSO
Protocol: Four homozygous TB2143 larvae (polg-1(ok1548Δ/Δ)) at stage L4 were deposited on each NGM dish containing either DMSO or 50 μM clofilium tosylate (three dishes for each treatment group). They were incubated at 20° C. to adulthood stage. The adults were moved every 9 to 12 hours, over 6 to 7 days, to new dishes containing DMSO or 50 μM clofilium tosylate until there were no eggs in the uterus, and the number of laid eggs was counted. Each laying process was monitored until the following day in order to count the hatching.

[2] = tested on: homozygous TB2143 nematodes (polg-1(ok1548Δ/Δ)); assay: Amount of mtDNA of homozygous nematodes depleted of mtDNA; format: in vivo, Caenorhabditis elegans
Protocol: Ten homozygous or wild-type TB2143 larvae (polg-1(ok1548Δ/Δ)) at stage L4 were deposited on each NGM dish containing either DMSO or 50 μM clofilium tosylate (three dishes for each treatment group). They were incubated at 20° C. until the 6th day of adulthood. Extraction of the total nematode DNAs was performed with the Nucleospin Kit Tissue kit (Macherey Nagel). The quantifications of mtDNA and nuclear DNA were performed as described in Addo et al., 2010 (Addo, M. G., Cossard, R., Pichard, D., Obiri-Danso, K., Rötig, A. and Delahodde, A. (2010) Caenorhabditis elegans, a pluricellular model organism to screen new genes involved in mitochondrial genome maintenance. BBA-Mol. Basis Dis., 1802, 765-773).

[3] = tested on: mip1^G651S and mip1^A692T yeast mutants, Δsml1; assay: Small colony frequency in mip1 strains with or without SML1 deletion (mtDNA stability); format: cell-based, Saccharomyces cerevisiae; details: 32 μM
Protocol: Deletion of the SML1 gene encoding the inhibitor of RNRI (ribonucleotide diphosphate reductase, enzyme limiting the synthesis pathway of dNTPs) is known to be a genetic suppressor of the instability of the mtDNA caused by mutations in the MIP1 gene (Wang P J, Chabes A, Casagrande R, Tian X C, Thelander L and Huffaker T C. (1997) Rnr4p a novel ribonucleotide reductase small-subunit protein. Mol Cell Biol, 17, 6114-6121).
The frequency of the small colonies was determined for the mip1^G651S and mip1^A692T strains, whether deleted or not from the SML1 gene and in the presence of 32 μM clofilium tosylate or DMSO.
From pre-cultures in selective medium (SC-TRP, 2% ethanol (v/v)) of mutated mip1 strains, 2.10^5 cells/mL were seeded in 2 mL of rich YPD medium in the presence of 32 μM clofilium tosylate or DMSO, then incubated at 28° C. for 24 hours. The cells were then diluted to have about 200 to 250 cells per dish and were spread on differential synthetic medium (SC-TRP, 0.3% glucose, 2% ethanol). The number of small colonies was calculated after 5 days of incubation at 28° C.

[4] = tested on: complex I in neuronal cybrids derived from a MELAS patient (m.3243A>G tRNA^Leu mutation); assay: Ratio of complex I/citrate synthase activities in MELAS neuronal cybrids; format: cell-based, human; details: 300 nM, 48 hours
Protocol: The mutant MELAS neuronal transmitochondrial line, which is the result of the fusion of the immortalised neuoroblastoma parental line SHSY-5Y with fibroblasts carrying the mutation m.3243A>G, was created in the laboratory of Prof. Procaccio.
Neuronal cybrid lines carrying the MELAS mutation and the parental control line were grown in sterile culture flasks and incubated at 37° C. with 5% CO2 in a medium composed of DMEM with 1.5 g/L glucose, 2 mM L-glutamine and supplemented with 10% foetal bovine serum as well as uridine (5 μg/ml) and pyruvate (10 μg/mL). […]
The MELAS neuronal cybrid line carrying the mutation seemingly in the homoplasmic state (i.e. reaching almost 100% MELAS mutation) and the SHSY-5Y parental control line were used for measurements of enzyme activities. […] These cell pellets were then analysed by spectrophotometry with measurement of the different mitochondrial biochemical activities, particularly the activity of citrate synthase and the activity of complex I of the respiratory chain. […]
The enzymatic activities were measured according to the protocol described in Medjda et al, 2009 (Medja F, Allouche S, Frachon P, Jardel C, Malgat M, Mousson de Camaret B, Slama A, Lunardi J, Mazat J P, Lombès A. Development and implementation of standardized respiratory chain spectrophotometric assays for clinical diagnosis. Mitochondrion. 2009 September; 9(5):331-9).

[5] = tested on: wild-type N2 BRISTOL line; details: Caenorhabditis elegans, in vivo, 4 days
Protocol: A series of NGM dishes containing clofilium tosylate at concentrations of 1 μM, 5 μM, 10 μM, 50 μM, 100 μM or 200 μM were prepared (three dishes for each concentration). Between 30 and 40 synchronised L1 larvae of the wild-type N2 BRISTOL line or mutated VC1224 line (polg-1(ok1458Δ/+)/mT1 II; +/mT1 [dpy-10(el28)] II), these being nematodes carrying a heterozygous deletion of 2149 bp in the sequence encoding the polg-1 gene, were deposited on each of these dishes.

## CCCCCCC[N+](CC)(CC)CCCCc1ccc(Cl)cc1.Cc1ccc(S(=O)(=O)[O-])cc1 [clofilium tosylate]
[1]
  hatching of embryos: increased
  number of laid eggs: increased
[2]; 50 μM vs DMSO
  amount of mtDNA of homozygous TB2143 nematodes: Clofilium tosylate increased the amount of mtDNA of homozygous TB2143 nematodes (polg-1(ok1548Δ/Δ)) depleted of mtDNA.
[2]; polg-1(ok1548Δ/Δ), 50 μM, 6th day of adulthood
  mtDNA/nuDNA: 69.2
[3]
  stability of the mtDNA, clofilium tosylate together with availability of dNTPs (SML1 deletion): additive effect
[4]
  activity of complex I (ratio complex I/citrate synthase): increased
[5]
  concentration at which a halt in development at stage L3 or a slowdown in development was observed: 100 µM
  maximum concentration to use: 50 µM
